Laboratory results: PubChem BioAssay (NCI)
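Briefly, cells in 96-well plates were exposed to five compound concentrations for 48 h, and endpoints were estimated by linear interpolation. Here, GI50 denotes the concentration required for 50% inhibition of growth. TGI marks complete inhibition of growth.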

Tests used:
Assay in all cases: growth of human tumour cells (NCI), 48 h
ACHN renal = test system: ACHN renal
HOP-92 NSCLC = test system: HOP-92 NSCLC
NCI-H460 lung = test system: NCI-H460 lung
OVCAR-4 ovarian = test system: OVCAR-4 ovarian
UACC-62 melanoma = test system: UACC-62 melanoma
DU-145 prostate = test system: DU-145 prostate
HS 578T breast = test system: HS 578T breast
LOX IMVI melanoma = test system: LOX IMVI melanoma
RXF 393 renal = test system: RXF 393 renal
BT-549 breast = test system: BT-549 breast

Compound	TGI (ACHN renal) [µM]	TGI (HOP-92 NSCLC) [µM]	TGI (NCI-H460 lung) [µM]	TGI (OVCAR-4 ovarian) [µM]	TGI (UACC-62 melanoma) [µM]	TGI (DU-145 prostate) [µM]	TGI (HS 578T breast) [µM]	TGI (LOX IMVI melanoma) [µM]	TGI (RXF 393 renal) [µM]	GI50 (ACHN renal) [µM]	GI50 (BT-549 breast) [µM]	TGI (BT-549 breast) [µM]	GI50 (DU-145 prostate) [µM]	GI50 (HOP-92 NSCLC) [µM]	GI50 (HS 578T breast) [µM]	GI50 (NCI-H460 lung) [µM]	GI50 (RXF 393 renal) [µM]	GI50 (LOX IMVI melanoma) [µM]	GI50 (UACC-62 melanoma) [µM]	GI50 (OVCAR-4 ovarian) [µM]
CC(=O)Nc1cc(N(CCOS(C)(=O)=O)CCOS(C)(=O)=O)ccc1N=O	> 100	> 100	> 100	> 100	> 100															
COc1cc(OC)c(/C=C\c2ccnc3ccccc23)c(OC)c1	17.5	9.91	14.2	16.5	14.6	17.2	12.1	13.6	11.6											
C=C(C)[C@@H]1CC[C@]2(C(=O)O)CC[C@]3(C)[C@H](CC[C@@H]4[C@@]5(C)C[C@@H](CC#Cc6ccc(C(F)(F)F)cc6)[C@H](O)C(C)(C)[C@@H]5CC[C@]43C)[C@@H]12	> 100	13.8	> 100			> 100	> 100		5.49	4.04	10.9	> 100	3.52	3.09	3.88	3.38	2.39			
CCCCCCCCOCC(O)COC(=O)CCCCCCC (stereo not given)	> 100	82.3	> 100	> 100	> 100			> 100												
O=CNc1ncn[nH]1	> 100		> 100	> 100	> 100	> 100	> 100	> 100	> 100			> 100								
CCOC(=O)CSC(=O)NCCCl	> 100	> 100	> 100	> 100	> 100				> 100											
NS(=O)(=O)c1ccc(NC2=CC(=O)C(=O)c3ccccc32)cc1	> 100	> 100	> 100	> 100	> 100			> 100	> 100											
O=C1c2nsnc2C(=O)c2c(F)c(F)c(F)c(F)c21	1.2		2.34		2.5	2.63	1.96	1.83	1.09	0.501	1.49	2.83	1.32		0.342	0.758	0.339	0.494	1.2	
NC(N)=N/N=C/c1c(-c2cc(Cl)sc2Cl)nc2sccn12	1.41		4.4		1.46		2.77		13.7	0.703	1.14	2.55			0.89	1.43	3.52		0.752	
CC(/C(=N\Nc1ccccc1)c1ccc(O)cc1)C1C(=O)Oc2ccccc21 (stereo not given)	> 100		> 100	> 100	> 100			> 100	> 100											
O=C(CN(/C=C/C(=O)C(F)(F)F)c1ccc(Cl)cc1)c1ccccc1	28.9	28.1	> 100		26.4	43.4	68.1	22.3	43.5	13.7	20.5	41.4	18	10.4	24.3	52.9	21.7	5.26	11.7	
COc1c(C(=O)c2ccc([N+](=O)[O-])cc2)cc(C(C)(C)C)cc1C(C)(C)C	> 100		> 100	> 100	36.2			27.7	62.2											
CCN(CC)CCOc1ccccc1/C=C/c1noc2ccccc12	25.9		25.3	50.7	22.4	29.1	32.3		9.97			29.9								
Cc1ccc2ncnc(N(CC(C)C)CC(C)C)c2c1	31.5	24	49	52.6	32.1	32.4	44.3	34.4	27.7	15.3			15.5	8.36	17.4	14.5	11.5	16.2	14.5	19
COC(=O)C(C(=O)C(=O)Nc1nc(=S)[nH][nH]1)c1csc(-n2nc(-c3ccccc3)cc2-c2ccccc2)n1 (stereo not given)	> 100	> 100	> 100	> 100	> 100			> 100	> 100											
COC(=O)/C=C(\C(=O)OC)c1c2c3c(cc(OC)c(OC)c3c3ccccc13)CCN2C	> 100	> 100	> 100		> 100			> 100	> 100											
CCCCCCCCN(CCCCCCCC)CCCCCCNc1cc(OC)cc2cccnc12	23.7		21.6	19.7	31.4	4.52	29.7	13.5	28.5	11	14.7	28	2.1		11	8.27	14.2	3.79	16.9	5.62
COC(=O)C(CC(C)C)NC(=O)NC12CC3CC(CC(F)(C3)C1)C2 (stereo not given)	> 100	> 100	> 100		> 100			> 100	> 100											
CC1CC(=O)Nc2ccccc2N1C(=O)CN1CCC(CCCCN(C)C)CC1 (stereo not given)	> 100		> 100	> 100	> 100			> 100	> 100											
CN(Cc1cc(Br)cc(Br)c1O)Cc1cc(Br)cc(Br)c1O	18.9	8.87	13.2	18.9	11.8	22.2	47.7	17.4	15.3	1.63			5.48	1.42	5.24	0.557	2.65	1.14	1.8	1.79
O=C(c1ccccc1)[C@H]1Nc2ccc(Cl)cc2C2c3ccccc3CC21 (stereo not given in full)	> 100		> 100	50.9				> 100	45.4											

Compound	TGI (ACHN renal) [µM]	TGI (HOP-92 NSCLC) [µM]	TGI (NCI-H460 lung) [µM]	TGI (OVCAR-4 ovarian) [µM]	TGI (UACC-62 melanoma) [µM]	TGI (DU-145 prostate) [µM]	TGI (HS 578T breast) [µM]	TGI (LOX IMVI melanoma) [µM]	TGI (RXF 393 renal) [µM]	GI50 (ACHN renal) [µM]	GI50 (BT-549 breast) [µM]	TGI (BT-549 breast) [µM]	GI50 (DU-145 prostate) [µM]	GI50 (HOP-92 NSCLC) [µM]	GI50 (HS 578T breast) [µM]	GI50 (NCI-H460 lung) [µM]	GI50 (RXF 393 renal) [µM]	GI50 (LOX IMVI melanoma) [µM]	GI50 (UACC-62 melanoma) [µM]	GI50 (OVCAR-4 ovarian) [µM]
CC1C[C@H](C)CC(C(O)CC2CC(=O)N(Cc3ccccc3)C(=O)C2)C1O (stereo not given in full)	> 100	> 100	> 100	> 100	> 100			> 100	> 100											
O=C(c1ccccc1)N1C2CCC1C(C(F)(F)F)=C2C(F)(F)F		> 100	> 100	> 100	> 100			> 100	> 100											
CNCc1cc(OC)ccc1-c1ccc(OC)c(OC)c1OC	> 100	> 100	> 100	> 100	> 100			> 100	> 100											
CC1=NOC(=O)/C1=C/c1cccc2ccccc12	> 100	> 100	> 100	> 100	> 100			> 100	> 100											
COC(=O)C(Cc1cc(OC)c(OC)c(OC)c1)c1ccc(OC)cc1 (stereo not given)	> 100	> 100	> 100	> 100	> 100			> 100	> 100											
COc1cc2nc(SCC(=O)Nc3cc(OC)c(OC)c(OC)c3)n(Cc3ccccc3)c(=O)c2cc1OC	> 100		> 100	5.56	6.82	> 100	9.45	> 100	8.35	4.63	2.02	5.61	7.44		2.46	6.72	2.55	4.71	2.35	2.11
COc1ccc2c(c1)[n+](=O)c(C(=O)c1ccco1)c(C(F)(F)F)n2[O-]	2.53	19.5	15.6		4.91	14.5	8.86	3.59	12	0.514	2.64	18.9	2.12	1.83	3.08	1.72	1.67	1.19	1.75	
Cc1ccc(NC(=O)C(=O)C(C#N)c2nc(-c3ccc(-c4ccccc4)cc3)cs2)c(C)c1 (stereo not given)	> 100	> 1	> 100	> 100	> 100			> 100	> 100											
Cl.Fc1c[c-]c(-c2ccccn2)c(F)c1.[Pt].c1ccc(P(c2ccccc2)C([PH+](c2ccccc2)c2ccccc2)[PH+](c2ccccc2)c2ccccc2)cc1	> 100	5.62	11.5		18	20.1	39	13.5	15.1	3.05	3.24	17.1	3.57	1.7	2.92	3.08	3.09	3.35	3.03	
O=C1c2ccccc2C(=O)N1CCN(CCN1C(=O)c2ccccc2C1=O)Cn1cccn1	> 100	> 100	> 100	> 100	63.2			> 100	> 100											
CCOC(=O)n1cc(C2=C(c3cn(C)c4ccccc34)COC2=O)c2ccccc21	> 100		> 100	> 100	> 55.6	> 58	21.1	> 96.6	0.377	0.0795	0.145	11.1	0.391		0.116	0.371	0.0356	0.132	0.0599	0.0692
CC(=O)c1ccc(OCC(O)CO)cc1 (stereo not given)	> 100	> 100	> 100	> 100	> 100															
Cc1cc2c(cc1C)[n+](=O)c(C(=O)C/C(=N/OCCCc1ccccc1)C(=O)Nc1cc(Cl)ccc1Cl)c(C)n2[O-]	> 100		> 100	> 100	> 100			> 100	> 100											
OCC(O)C(O)C(O)c1nn(-c2ccc(Cl)cc2)c2nc3cc(Cl)c(Cl)cc3nc12 (stereo not given)	> 100		> 100	> 100	> 100			> 100	72.4											
O=C1NC(=O)C(=C/C=C/c2ccccc2)C(=O)N1	5.65		7.31	17.2	4.5	4.87	50.4	3.3	2.71	2.32	2.32	6.79	2.13		4.81	2.78	1.39	1.55	1.88	5.37
O=C(O)C[C@H]1CCCCC12CCOC2=O (stereo not given in full)	> 100	> 100	> 100	> 100	> 100			> 100	> 100											
NNC(=O)CNC(=O)c1ccc(Cl)cc1Cl	> 100	> 100	> 100	> 100	> 100															
COc1ccc2c(c1)[nH]c(=O)c1c3cc(OC)ccc3cn21	1.55	2.09	0.363	1.82	1.4	0.256		1.68	0.274	0.0199	< 0.031	1.19	< 0.019	0.21		0.0282	< 0.01	0.0269	< 0.01	0.05
N#Cc1c2c(c(N=P(c3ccccc3)(c3ccccc3)c3ccccc3)n3c1nc1ccccc13)CCCC2	67.5		56.5	> 100	74.4			76.3	98.5											
Clc1cccc(Cl)c1C1CSc2ccccc2N=C1c1ccccc1 (stereo not given)	7.3		15.6	16	19.6	18.3	57.6	4.03	24.1	2.45	5.19	17.1	5.74		6.26	4.04	9.74	1.75	5.9	3.11
CC1SC2=NC3=C(c4ccccc4C3=O)C(c3ccc(Cl)cc3)N2C1=O (stereo not given)	> 100	> 100	> 100	> 100	> 100															
